Source: ChEMBL document CHEMBL3885881, “DrugMatrix”

Organism: Rattus norvegicus
Assay: DrugMatrix - Regimen: Daily Repeat
Format: toxicity, organism-based, Sprague-Dawley
Parameters: regimen Daily Repeat, gender Male, age 6-8 weeks
Settings: in vivo, po, route oral GAVAGE, vehicle .5 % CMC; for ABSOLUTE BASOPHIL / ABSOLUTE EOSINOPHIL / ABSOLUTE LYMPHOCYTE / ABSOLUTE MONOCYTE / ABSOLUTE SEGMENTED NEUTROPHIL / BASOPHIL / EOSINOPHIL / ERYTHROCYTE COUNT / HEMATOCRIT / HEMOGLOBIN / LEUKOCYTE COUNT / LYMPHOCYTE / MEAN CORPUSCULAR HEMOGLOBIN / MEAN CORPUSCULAR HEMOGLOBIN CONCENTRATION / MEAN CORPUSCULAR VOLUME / MONOCYTE / NEUTROPHIL / NUCLEATED RED BLOOD CELLS / PLATELET COUNT: tissue Blood; for ALANINE AMINOTRANSFERASE / ALBUMIN / ALKALINE PHOSPHATASE / ASPARTATE AMINOTRANSFERASE / BLOOD UREA NITROGEN / CARBON DIOXIDE / CHLORIDE / CHOLESTEROL / CREATINE PHOSPHOKINASE / CREATININE / GLUCOSE / LACTATE DEHYDROGENASE / LIPASE / PHOSPHORUS / POTASSIUM / SODIUM / TOTAL BILIRUBIN / TOTAL PROTEIN / URIC ACID: tissue Plasma
[1] = 50 mg/kg, 120 h, dose level Low, time 5 day
[2] = 1500 mg/kg, 72 h, dose level High, time 3 day
[3] = 1500 mg/kg, 120 h, dose level High, time 5 day

CNC(=C[N+](=O)[O-])NCCSCc1ccc(CN(C)C)o1 [RANITIDINE]
ABSOLUTE BASOPHIL [1]: 0 CELLS/uL | ABSOLUTE EOSINOPHIL [1]: 64.67 CELLS/uL | ABSOLUTE LYMPHOCYTE [1]: 14230.33 CELLS/uL | ABSOLUTE MONOCYTE [1]: 0 CELLS/uL | ABSOLUTE SEGMENTED NEUTROPHIL [1]: 1138.33 CELLS/uL | BASOPHIL [1]: 0% | EOSINOPHIL [1]: 0.33% | ERYTHROCYTE COUNT [1]: 5.36 x10E6/uL | HEMATOCRIT [1]: 34.53% | HEMOGLOBIN [1]: 13.67 G/DL | LEUKOCYTE COUNT [1]: 15.43 x10E3/uL | LYMPHOCYTE [1]: 92.67% | MEAN CORPUSCULAR HEMOGLOBIN [1]: 25.53 pg | MEAN CORPUSCULAR HEMOGLOBIN CONCENTRATION [1]: 39.6 G/DL | MEAN CORPUSCULAR VOLUME [1]: 64.47 fL | MONOCYTE [1]: 0% | NEUTROPHIL [1]: 7% | NUCLEATED RED BLOOD CELLS [1]: 0 /100WBC | PLATELET COUNT [1]: 1360.67 x10E3/uL | ALANINE AMINOTRANSFERASE [1]: 42 u/L | ALBUMIN [1]: 4.17 G/DL | ALKALINE PHOSPHATASE [1]: 395 u/L | ASPARTATE AMINOTRANSFERASE [1]: 70.33 u/L | BLOOD UREA NITROGEN [1]: 17 mg/dL | CARBON DIOXIDE [1]: 28 mmol/L | CHLORIDE [1]: 102 MEQ/L | CHOLESTEROL [1]: 50.33 mg/dL | CREATINE PHOSPHOKINASE [1]: 245.67 u/L | CREATININE [1]: 0.19 mg/dL | GLUCOSE [1]: 148 mg/dL | LACTATE DEHYDROGENASE [1]: 98 u/L | LIPASE [1]: 8.67 u/L | PHOSPHORUS [1]: 12.1 mg/dL | POTASSIUM [1]: 6.46 MEQ/L | SODIUM [1]: 145.6 MEQ/L | TOTAL BILIRUBIN [1]: 0.2 mg/dL | TOTAL PROTEIN [1]: 6 G/DL | URIC ACID [1]: 1.33 mg/dL | ABSOLUTE BASOPHIL [2]: 0 CELLS/uL | ABSOLUTE EOSINOPHIL [2]: 49.67 CELLS/uL | ABSOLUTE LYMPHOCYTE [2]: 15225.67 CELLS/uL | ABSOLUTE MONOCYTE [2]: 162.67 CELLS/uL | ABSOLUTE SEGMENTED NEUTROPHIL [2]: 1162 CELLS/uL | BASOPHIL [2]: 0% | EOSINOPHIL [2]: 0.33% | ERYTHROCYTE COUNT [2]: 5.61 x10E6/uL | HEMATOCRIT [2]: 35.4% | HEMOGLOBIN [2]: 14 G/DL | LEUKOCYTE COUNT [2]: 16.6 x10E3/uL | LYMPHOCYTE [2]: 91.67% | MEAN CORPUSCULAR HEMOGLOBIN [2]: 24.97 pg | MEAN CORPUSCULAR HEMOGLOBIN CONCENTRATION [2]: 39.57 G/DL | MEAN CORPUSCULAR VOLUME [2]: 63.03 fL | MONOCYTE [2]: 1% | NEUTROPHIL [2]: 7% | NUCLEATED RED BLOOD CELLS [2]: 0.33 /100WBC | PLATELET COUNT [2]: 1234.33 x10E3/uL | ALANINE AMINOTRANSFERASE [2]: 53 u/L | ALBUMIN [2]: 4.17 G/DL | ALKALINE PHOSPHATASE [2]: 349.67 u/L | ASPARTATE AMINOTRANSFERASE [2]: 86.67 u/L | BLOOD UREA NITROGEN [2]: 14.67 mg/dL | CARBON DIOXIDE [2]: 31 mmol/L | CHLORIDE [2]: 101.33 MEQ/L | CHOLESTEROL [2]: 68 mg/dL | CREATINE PHOSPHOKINASE [2]: 268.67 u/L | CREATININE [2]: 0.18 mg/dL | GLUCOSE [2]: 146 mg/dL | LACTATE DEHYDROGENASE [2]: 319.67 u/L | LIPASE [2]: 9.33 u/L | PHOSPHORUS [2]: 12.6 mg/dL | POTASSIUM [2]: 7.13 MEQ/L | SODIUM [2]: 145.5 MEQ/L | TOTAL BILIRUBIN [2]: 0.17 mg/dL | TOTAL PROTEIN [2]: 5.6 G/DL | URIC ACID [2]: 1.37 mg/dL | ABSOLUTE BASOPHIL [3]: 0 CELLS/uL | ABSOLUTE EOSINOPHIL [3]: 61.33 CELLS/uL | ABSOLUTE LYMPHOCYTE [3]: 16689.33 CELLS/uL | ABSOLUTE MONOCYTE [3]: 42 CELLS/uL | ABSOLUTE SEGMENTED NEUTROPHIL [3]: 1274 CELLS/uL | BASOPHIL [3]: 0% | EOSINOPHIL [3]: 0.33% | ERYTHROCYTE COUNT [3]: 6.18 x10E6/uL | HEMATOCRIT [3]: 38.9% | HEMOGLOBIN [3]: 15.3 G/DL | LEUKOCYTE COUNT [3]: 18.07 x10E3/uL | LYMPHOCYTE [3]: 92.67% | MEAN CORPUSCULAR HEMOGLOBIN [3]: 24.8 pg | MEAN CORPUSCULAR HEMOGLOBIN CONCENTRATION [3]: 39.33 G/DL | MEAN CORPUSCULAR VOLUME [3]: 63.03 fL | MONOCYTE [3]: 0.33% | NEUTROPHIL [3]: 6.67% | NUCLEATED RED BLOOD CELLS [3]: 0 /100WBC | PLATELET COUNT [3]: 1282 x10E3/uL | ALANINE AMINOTRANSFERASE [3]: 57.33 u/L | ALBUMIN [3]: 4.27 G/DL | ALKALINE PHOSPHATASE [3]: 392.67 u/L | ASPARTATE AMINOTRANSFERASE [3]: 93.67 u/L | BLOOD UREA NITROGEN [3]: 15.67 mg/dL | CARBON DIOXIDE [3]: 21.33 mmol/L | CHLORIDE [3]: 100.33 MEQ/L | CHOLESTEROL [3]: 69.67 mg/dL | CREATINE PHOSPHOKINASE [3]: 330.33 u/L | CREATININE [3]: 0.23 mg/dL | GLUCOSE [3]: 154 mg/dL | LACTATE DEHYDROGENASE [3]: 426.67 u/L | LIPASE [3]: 10 u/L | PHOSPHORUS [3]: 12.5 mg/dL | POTASSIUM [3]: 6.43 MEQ/L | SODIUM [3]: 144.53 MEQ/L | TOTAL BILIRUBIN [3]: 0.23 mg/dL | TOTAL PROTEIN [3]: 6.27 G/DL | URIC ACID [3]: 2.73 mg/dL
